Experiment: xn = mol fraction of the nth substance listed
Settings: Liquid, Vibrating tube method

CC(C)OC(C)C [diisopropyl ether] + CC(C)O
mass density [kg/m3]
Settings | x2 = 0.1503 | x2 = 0.2979 | x2 = 0.4228 | x2 = 0.5 | x2 = 0.6737 | x2 = 0.8483
313.15 K, 45000 kPa | – | – | – | – | 780.4 | 791.7
313.15 K, 50000 kPa | 759.5 | 765.4 | 770.9 | 774.5 | 783.9 | 794.9
313.15 K, 55000 kPa | 763.3 | 769 | 774.4 | 778.1 | 787.3 | 798.1
313.15 K, 60000 kPa | 766.8 | 772.5 | 777.8 | 781.4 | 790.5 | 801.2
313.15 K, 65000 kPa | 770.2 | 775.8 | 781.1 | 784.7 | 793.7 | 804.2
313.15 K, 70000 kPa | 773.5 | 779 | 784.3 | 787.7 | 796.6 | 807
313.15 K, 80000 kPa | 779.6 | 785.1 | 790.3 | 793.6 | 802.3 | 812.5
313.15 K, 90000 kPa | 785.6 | 790.9 | 796 | 799.3 | 807.8 | 817.8
313.15 K, 100000 kPa | 791.2 | 796.3 | 801.3 | 804.5 | 812.9 | 822.7
313.15 K, 110000 kPa | 796.4 | 801.5 | 806.4 | 809.6 | 817.9 | 827.5
313.15 K, 120000 kPa | 801.3 | 806.4 | 811.2 | 814.4 | 822.4 | 832
313.15 K, 130000 kPa | 806.2 | 811.2 | 815.8 | 819 | 826.9 | 836.3
313.15 K, 140000 kPa | 810.9 | 815.8 | 820.2 | 823.5 | 831.3 | 840.6
333.15 K, 100 kPa | 687.4 | 694.9 | 702.4 | 707 | 719.4 | 734.1
333.15 K, 1000 kPa | 689 | 696.4 | 703.7 | 708.4 | 720.7 | 735.3
333.15 K, 5000 kPa | 695.4 | 702.6 | 709.5 | 714.2 | 726.1 | 740.2
333.15 K, 10000 kPa | 702.7 | 709.6 | 716.1 | 720.7 | 732.2 | 745.8
333.15 K, 15000 kPa | 709.3 | 716 | 722.3 | 726.8 | 737.9 | 751.1
333.15 K, 20000 kPa | 715.3 | 721.8 | 728 | 732.3 | 743.1 | 755.9
333.15 K, 25000 kPa | 720.9 | 727.3 | 733.3 | 737.5 | 748 | 760.5
333.15 K, 30000 kPa | 726.2 | 732.4 | 738.3 | 742.4 | 752.6 | 764.9
333.15 K, 35000 kPa | 731.1 | 737.2 | 743 | 747 | 757 | 769
333.15 K, 40000 kPa | 735.8 | 741.7 | 747.4 | 751.4 | 761.2 | 772.9
333.15 K, 45000 kPa | 740.2 | 746 | 751.7 | 755.4 | 765.1 | 776.6
333.15 K, 50000 kPa | 744.4 | 750.2 | 755.7 | 759.4 | 768.9 | 780.3
333.15 K, 55000 kPa | 748.4 | 754.1 | 759.6 | 763.2 | 772.6 | 783.8
333.15 K, 60000 kPa | 752.2 | 757.8 | 763.3 | 766.8 | 776.1 | 787
333.15 K, 65000 kPa | 756 | 761.5 | 766.9 | 770.4 | 779.4 | 790.3
333.15 K, 70000 kPa | 759.5 | 765 | 770.3 | 773.7 | 782.7 | 793.5
333.15 K, 80000 kPa | 766.3 | 771.6 | 776.8 | 780.1 | 788.9 | 799.3
333.15 K, 90000 kPa | 772.6 | 777.8 | 782.9 | 786.2 | 794.8 | 805
333.15 K, 100000 kPa | 778.5 | 783.6 | 788.6 | 791.8 | 800.2 | 810.2
333.15 K, 110000 kPa | 784.1 | 789.2 | 794 | 797.3 | 805.5 | 815.3
333.15 K, 120000 kPa | 789.4 | 794.4 | 799.1 | 802.3 | 810.4 | 820.1
333.15 K, 130000 kPa | 794.5 | 799.4 | 804 | – | – | –

— the NIST ThermoML archive (doi:10.1016/j.fluid.2018.04.012)
